Data from patent US9730939B2, “Heterocyclylamines as PI3K inhibitors” (Incyte Corporation, priority 2011, dated 2017).

Target: PI3Kδ (p110δ/p85α) (Homo sapiens (Human), UniProt O00329)
Assay: Example A3 PI3Kδ scintillation proximity assay
Format: biochemical
Details: comparison of compounds 355-358; assay not given
Description: PI3Kδ Scintillation Proximity Assay
[γ-^33P]ATP (10 mCi/mL) was purchased from PerkinElmer (Waltham, Mass.). […] PI3Kδ (p110δ/p85α) was purchased from Millipore (Bedford, Mass.). ATP, MgCl2, DTT, EDTA, MOPS and CHAPS were purchased from SigmaAldrich (St. Louis, Mo.). Wheat Germ Agglutinin (WGA) YSi SPA Scintillation Beads was purchased from GE healthcare life sciences (Piscataway, N.J.).
The final concentration of DMSO in the assay was 0.5%. The PI3K assays were carried out at room temperature in 20 mM MOPS, pH 6.7, 10 mM MgCl2, 5 mM DTT and CHAPS 0.03%. Reactions were initiated by the addition of ATP, the final reaction mixture consisted of 20 μM PIP2, 20 μM ATP, 0.2 μCi [γ-^33P]

Chain of PI3Kδ (p110δ/p85α) (O00329 whole entry): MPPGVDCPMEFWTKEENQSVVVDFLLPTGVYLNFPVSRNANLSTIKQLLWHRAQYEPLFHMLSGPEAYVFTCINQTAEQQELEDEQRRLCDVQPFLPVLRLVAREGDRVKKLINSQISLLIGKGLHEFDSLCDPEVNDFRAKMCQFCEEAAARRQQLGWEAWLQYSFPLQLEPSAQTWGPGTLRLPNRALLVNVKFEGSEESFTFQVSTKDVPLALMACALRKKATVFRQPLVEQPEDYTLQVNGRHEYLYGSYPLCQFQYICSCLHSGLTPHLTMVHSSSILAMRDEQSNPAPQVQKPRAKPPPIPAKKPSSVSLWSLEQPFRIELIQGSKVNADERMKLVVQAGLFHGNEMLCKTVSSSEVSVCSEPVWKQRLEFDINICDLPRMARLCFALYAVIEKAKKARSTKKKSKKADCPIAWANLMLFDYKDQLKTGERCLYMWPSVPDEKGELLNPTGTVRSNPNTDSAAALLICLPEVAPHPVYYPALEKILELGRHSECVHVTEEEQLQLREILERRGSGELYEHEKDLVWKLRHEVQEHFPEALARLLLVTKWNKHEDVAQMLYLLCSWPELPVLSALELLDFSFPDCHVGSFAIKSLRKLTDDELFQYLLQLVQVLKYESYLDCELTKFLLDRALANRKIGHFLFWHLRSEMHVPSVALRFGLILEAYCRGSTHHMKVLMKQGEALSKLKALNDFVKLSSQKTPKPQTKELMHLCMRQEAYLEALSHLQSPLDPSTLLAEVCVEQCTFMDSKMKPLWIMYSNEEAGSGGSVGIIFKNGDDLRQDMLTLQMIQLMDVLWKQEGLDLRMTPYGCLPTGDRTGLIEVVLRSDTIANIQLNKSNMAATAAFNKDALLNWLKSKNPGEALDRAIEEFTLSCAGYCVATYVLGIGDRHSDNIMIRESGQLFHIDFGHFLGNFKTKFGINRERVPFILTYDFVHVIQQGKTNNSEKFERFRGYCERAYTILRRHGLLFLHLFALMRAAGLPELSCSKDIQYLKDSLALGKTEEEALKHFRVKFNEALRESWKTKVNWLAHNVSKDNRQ
Chain of PI3Kδ (p110δ/p85α) (P27986 whole entry partner): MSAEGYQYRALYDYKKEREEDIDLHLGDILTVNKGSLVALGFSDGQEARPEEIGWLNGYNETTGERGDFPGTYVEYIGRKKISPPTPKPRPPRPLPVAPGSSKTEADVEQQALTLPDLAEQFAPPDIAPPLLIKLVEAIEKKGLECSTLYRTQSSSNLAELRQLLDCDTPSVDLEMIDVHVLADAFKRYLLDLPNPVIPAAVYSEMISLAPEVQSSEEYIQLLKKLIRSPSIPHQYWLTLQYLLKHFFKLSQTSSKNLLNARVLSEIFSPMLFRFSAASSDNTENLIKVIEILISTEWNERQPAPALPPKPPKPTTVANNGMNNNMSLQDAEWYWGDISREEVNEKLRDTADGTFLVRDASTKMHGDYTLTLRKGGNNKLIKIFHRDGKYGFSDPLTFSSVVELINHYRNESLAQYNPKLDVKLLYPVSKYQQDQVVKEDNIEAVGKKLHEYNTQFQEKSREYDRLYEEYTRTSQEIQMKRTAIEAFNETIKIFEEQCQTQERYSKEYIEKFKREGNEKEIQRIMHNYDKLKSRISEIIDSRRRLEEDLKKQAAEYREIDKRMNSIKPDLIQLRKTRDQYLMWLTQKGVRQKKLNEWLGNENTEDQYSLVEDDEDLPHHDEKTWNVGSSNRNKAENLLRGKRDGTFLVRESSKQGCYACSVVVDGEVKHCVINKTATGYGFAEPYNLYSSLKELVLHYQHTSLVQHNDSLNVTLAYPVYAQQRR

relative activity of the separated enantiomers (peaks 1-4): most active enantiomer
Structure (SMILES): CCOc1c(C(C)n2nc(C)c3c(N)ncnc32)cc(Cl)c(F)c1C1CNC(=O)O1 (single isomer, unassigned) [Example 357, 5-{3-[1-(4-amino-3-methyl-1H-pyrazolo[3,4-d]pyrimidin-1-yl)ethyl]-5-chloro-2-ethoxy-6-fluorophenyl}-1,3-oxazolidin-2-one]
